Experimental data as given in ChEMBL document CHEMBL3091320, “6-(4-Pyridyl)pyrimidin-4(3H)-ones as CNS penetrant glycogen synthase kinase-3β inhibitors” (Bioorg Med Chem Lett, 2013).

Columns and labels:
[1] = molecular target: Glycogen synthase kinase-3 beta (Homo sapiens, UniProt P49841); assay: Inhibition of human recombinant GSK3beta using prephosphorylated GS1 peptide as substrate after 1 hr by liquid scintillation spectrometry
[2] = Clearance in rat microsomes; assay type: ADME, Microsome
[3] = Inhibition of CYP1A (unknown origin); assay type: ADME, Homo sapiens
Rattus norvegicus = assay: Reduction in tau protein phosphorylation in Wistar rat prefrontal cortex at 100 mg/kg, ip after 15 mins to 2 hrs by western blot analysis relative to vehicle-treated control; assay type: functional; design: scale not given: the % may be the effect or the level left; conditions: route intraperitoneal
[4] = Permeability co-efficient in Wistar rat brain at 30 mg/kg, ip measured at 0.25 hrs; assay type: ADME, organism-based; design: dose 30 mg/kg, route intraperitoneal
Brain = assay: Drug uptake in Wistar rat brain at 30 mg/kg, ip measured at 0.25 hrs; assay type: ADME, organism-based; design: dose 30 mg/kg, route intraperitoneal; conditions: in vivo

Sequence of Glycogen synthase kinase-3 beta (P49841 whole entry): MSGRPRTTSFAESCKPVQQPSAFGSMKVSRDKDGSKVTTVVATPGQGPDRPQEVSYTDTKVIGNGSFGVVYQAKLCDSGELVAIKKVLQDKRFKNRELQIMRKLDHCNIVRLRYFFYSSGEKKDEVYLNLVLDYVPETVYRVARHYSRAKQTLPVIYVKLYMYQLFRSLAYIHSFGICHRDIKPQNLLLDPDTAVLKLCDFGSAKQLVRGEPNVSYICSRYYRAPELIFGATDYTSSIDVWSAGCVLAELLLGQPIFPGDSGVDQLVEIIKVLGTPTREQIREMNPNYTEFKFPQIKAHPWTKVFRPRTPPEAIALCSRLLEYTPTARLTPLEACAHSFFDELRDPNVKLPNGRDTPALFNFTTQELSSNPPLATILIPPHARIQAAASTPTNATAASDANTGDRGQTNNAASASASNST

SMILES | IC50 [1] [nM] | further results
CCCn1c(CCCc2ccccc2)nc(-c2ccncc2)cc1=O | 9800 | 
Cn1c(NCC(=O)c2cccc(F)c2)nc(-c2ccncc2)cc1=O | 25 | CL [2]: 207 µL/min/mg; IC50 [3]: 4200 nM
CC(C)Cc1nc(-c2ccncc2)cc(=O)[nH]1 | 2400 | 
Cn1c(NCCC2CCCCC2)nc(-c2ccncc2)cc1=O | 39 | 
Cn1c(OCCc2ccccc2)nc(-c2ccncc2)cc1=O | 200 | 
Cn1c(N(CCCCN)CCc2ccccc2)nc(-c2ccncc2)cc1=O | 130 | 
Cn1c(NCC(O)c2ccccc2)nc(-c2ccncc2)cc1=O (configuration not stated) | 23 | 
Cc1cccc(C(=O)CNc2nc(-c3ccncc3)cc(=O)n2C)c1 | 38 | CL [2]: 262 µL/min/mg; IC50 [3]: 2200 nM
Cn1c(N(CCCCCN)CCc2ccccc2)nc(-c2ccncc2)cc1=O | 150 | 
Cn1c(NCCc2ccccc2)nc(-c2ccncc2)cc1=O | 70 | 
Cn1c(NCC(=O)c2ccccc2)nc(-c2ccncc2)cc1=O | 8.9 | Activity (Rattus norvegicus): 24%; Kp at 0.25 h [4]: 1.15; Drug uptake (Brain): 11.2 uM/ml; CL [2]: 172 µL/min/mg; IC50 [3]: 5700 nM
CCCCc1nc(-c2ccncc2)cc(=O)[nH]1 | 1300 | 
Cn1c(NCC(=O)c2ccccc2F)nc(-c2ccncc2)cc1=O | 27 | CL [2]: 158 µL/min/mg; IC50 [3]: 3800 nM
Cc1nc(-c2ccncc2)cc(=O)[nH]1 | 3000 | 
O=c1cc(-c2ccncc2)nc(CCCc2ccccc2)[nH]1 | 500 | 
O=c1cc(-c2ccncc2)nc(CCCc2ccccc2)n1Cc1ccccc1 | 2200 | 
CCn1c(CCCc2ccccc2)nc(-c2ccncc2)cc1=O | 1900 | 
O=c1cc(-c2ccncc2)nc(CCc2ccccc2)[nH]1 | 8900 | 
Cn1c(CCCc2ccccc2)nc(-c2ccncc2)cc1=O | 90 | 
Cn1c(NCC(=O)c2ccc(F)cc2)nc(-c2ccncc2)cc1=O | 52 | CL [2]: 166 µL/min/mg; IC50 [3]: 10900 nM
CC(C)c1nc(-c2ccncc2)cc(=O)[nH]1 | 2100 | 
Cn1c(NCC(=O)c2cccc(C#N)c2)nc(-c2ccncc2)cc1=O | 13 | CL [2]: 133 µL/min/mg; IC50 [3]: > 53300 nM
O=c1cc(-c2ccncc2)nc(Cc2ccccc2)[nH]1 | 1300 | 
O=c1cc(-c2ccncc2)nc(-c2ccccc2)[nH]1 | 1800 | 
Cn1c(NCC(=O)c2cccc(Cl)c2)nc(-c2ccncc2)cc1=O | 13 | CL [2]: 262 µL/min/mg; IC50 [3]: 670 nM
